According to paper PMC5871718 (Cell, 2018):

Tests used:
BRD3 = target: T1, BRD3 (Homo sapiens, UniProt Q15059); experiment: 2D thermal proteome profiling (TMT mass spectrometry); format: cell-based; details: intact THP-1 cells, […] min, […] °C; stabilization
T1 construct: endogenous full-length protein in THP-1 cells or lysate, identified by mass spectrometry

NUDT1 = target: T2, NUDT1 (Homo sapiens, UniProt P36639); experiment: as above; format: cell-based; details: intact THP-1 cells, […] min, […] °C; stabilization
T2 construct: endogenous protein in THP-1 cells, identified by mass spectrometry

FYTTD1 [1] = target: T3, FYTTD1 (Homo sapiens, UniProt Q96QD9); experiment: thermal shift of spiked recombinant protein, mass spectrometry read-out; format: binding; set-up: commercial recombinant protein (Abcam ab164533); details: […] JQ1, […] protein in background of recombinant protein domains, […] HEPES pH […] NaCl, […] glycerol, […] Tween20; destabilization
T3 sequence (Q96QD9 1-318): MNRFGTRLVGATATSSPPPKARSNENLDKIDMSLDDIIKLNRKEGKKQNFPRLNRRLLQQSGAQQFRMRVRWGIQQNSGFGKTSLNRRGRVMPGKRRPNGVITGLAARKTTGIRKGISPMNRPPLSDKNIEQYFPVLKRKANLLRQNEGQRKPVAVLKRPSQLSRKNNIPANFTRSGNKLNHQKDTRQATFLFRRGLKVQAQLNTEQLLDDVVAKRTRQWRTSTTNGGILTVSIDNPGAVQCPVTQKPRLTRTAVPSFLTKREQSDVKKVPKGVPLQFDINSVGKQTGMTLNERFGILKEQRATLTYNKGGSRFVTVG

SOAT1 = target: T4, SOAT1 (Homo sapiens, UniProt P35610); experiment: 2D thermal proteome profiling (TMT mass spectrometry); format: cell-based; details: intact THP-1 cells, […] min, […] °C; stabilization; text value approximate
T4 construct: endogenous full-length protein in THP-1 cells, identified by mass spectrometry
T4 sequence (P35610 1-550): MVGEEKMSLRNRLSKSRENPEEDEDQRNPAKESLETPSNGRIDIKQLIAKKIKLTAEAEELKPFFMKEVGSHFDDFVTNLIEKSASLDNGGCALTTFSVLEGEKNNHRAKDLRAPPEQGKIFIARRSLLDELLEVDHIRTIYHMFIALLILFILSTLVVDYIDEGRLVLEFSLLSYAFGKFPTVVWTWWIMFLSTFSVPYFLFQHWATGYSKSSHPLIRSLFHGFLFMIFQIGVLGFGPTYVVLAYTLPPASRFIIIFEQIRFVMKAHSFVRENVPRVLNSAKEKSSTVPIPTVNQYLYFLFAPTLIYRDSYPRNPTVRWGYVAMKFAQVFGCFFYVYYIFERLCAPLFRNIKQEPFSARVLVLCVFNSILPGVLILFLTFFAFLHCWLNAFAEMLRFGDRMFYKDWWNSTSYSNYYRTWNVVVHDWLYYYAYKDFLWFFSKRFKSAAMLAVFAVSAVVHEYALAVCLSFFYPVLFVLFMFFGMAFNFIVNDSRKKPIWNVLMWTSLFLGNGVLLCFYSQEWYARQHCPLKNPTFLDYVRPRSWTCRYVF
Description: 2D thermal proteome profiling (TMT mass spectrometry) on SOAT1 | stabilized SOAT1 and several members of the sterol biosynthesis pathway

FYTTD1 [2] = target: T3, FYTTD1; experiment: as above; format: cell-based; set-up: endogenous protein in THP-1 cells, identified by mass spectrometry; details: intact THP-1 cells, […] min, […] °C; destabilization; text value approximate
Description: 2D thermal proteome profiling (TMT mass spectrometry) on FYTTD1 | JQ1 further caused dose-dependent destabilization of FYTTD1

T1 sequence (Q15059 2-726): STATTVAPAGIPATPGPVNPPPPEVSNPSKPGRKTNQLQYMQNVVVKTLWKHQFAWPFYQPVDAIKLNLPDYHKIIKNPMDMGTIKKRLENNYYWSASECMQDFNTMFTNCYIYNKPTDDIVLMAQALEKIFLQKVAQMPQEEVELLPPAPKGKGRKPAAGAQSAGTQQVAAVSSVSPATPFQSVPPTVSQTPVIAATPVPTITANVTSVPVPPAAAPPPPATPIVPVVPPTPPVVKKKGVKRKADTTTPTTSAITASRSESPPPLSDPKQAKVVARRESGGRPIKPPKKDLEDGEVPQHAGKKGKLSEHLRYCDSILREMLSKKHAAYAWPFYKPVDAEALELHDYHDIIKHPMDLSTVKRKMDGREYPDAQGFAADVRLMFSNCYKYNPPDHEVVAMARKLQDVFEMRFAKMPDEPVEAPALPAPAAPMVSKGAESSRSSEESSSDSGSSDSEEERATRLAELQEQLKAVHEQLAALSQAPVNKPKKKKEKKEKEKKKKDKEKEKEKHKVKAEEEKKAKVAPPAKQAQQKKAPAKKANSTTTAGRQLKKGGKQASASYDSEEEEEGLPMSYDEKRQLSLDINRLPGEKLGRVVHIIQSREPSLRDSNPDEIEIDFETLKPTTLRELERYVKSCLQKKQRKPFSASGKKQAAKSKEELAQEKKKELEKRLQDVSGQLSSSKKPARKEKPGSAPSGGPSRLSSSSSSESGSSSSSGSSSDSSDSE

Row | Structure (SMILES) | pEC50 (BRD3) | pEC50 (NUDT1) | thermal shift (FYTTD1 [1]) | EC50 (SOAT1) | EC50 (FYTTD1 [2])
1 | COc1cc2c(cc1-c1c(C)noc1C)ncc1[nH]c(=O)n([C@H](C)c3ccccn3)c12 [I-BET151, 7-(3,5-dimethylisoxazol-4-yl)-8-methoxy-1-((R)-1-(pyridin-2-yl)ethyl)-1H-imidazo[4,5-c]quinolin-2(3H)-one] | 5.9 | 5.3 | – | – | –
2 | Cc1sc2c(c1C)C(c1ccc(Cl)cc1)=N[C@@H](CC(=O)OC(C)(C)C)c1nnc(C)n1-2 [JQ1] | – | – | Thermal shift assays with recombinantly expressed FYTTD1 confirmed destabilization by JQ1 binding | ~1000 nM | ~1000 nM
